Measurements as given in ChEMBL document CHEMBL5725356, “Anti-fibrotic pyridinones” (2017).

test: ET-1 Assay: Fibroblasts (primary human lung and dermal, HFL-1, 3T3 etc) are seeded in 96-well plates at ~15000 cells/well and serum starved for 0-48 hours. After media exchange, compounds serially diluted in DMSO are added to the cells. After a brief incubation of ~30 min, stimulants (TGFb, serum, LPA etc) are added followed by further incubation for 16-48 hours. Media is then harvested and stored frozen in plate format for later endothelin-1 (ET-1) determination by ELISA. Toxicity measurements are made using the ATPlite kit (Perkin-Elmer). ET-1 is quantified using an ELISA kit (R&D Systems). The amount of ET-1 produced in the assay wells are back-calculated using the ELISA standard. The ability of a compound to inhibit ET-1 production is typically analyzed by fitting dose-response curves to a 4-parameter logistic function to obtain an EC50 value.; settings: HFL1

| Structure (SMILES) | EC50 |
| --- | --- |
| CCn1nc2c(-c3cn[nH]c3)cn(-c3ccc(OC(F)(F)F)cc3)c(=O)c2n1 | < 50 µM |
| CCn1nc2c(-c3cnn(C)c3)cn(-c3ccc(OCCOC)cc3)c(=O)c2n1 | in the range around 125 µM |
| CCn1ccc2c(-c3ccc(F)cc3)cn(-c3ccc(OC(F)(F)F)cc3)c(=O)c21 | < 50 µM |
| CC(C)n1cc(-c2cn(-c3ccc(OC(F)(F)F)cc3)c(=O)c3c2ncn3C)cn1 | < 50 µM |
| CCn1cnc2c(-c3cnn(C)c3)cn(-c3ccc(OC(F)(F)F)cc3)c(=O)c21 | < 50 µM |
| O=c1c2cccnc2c(-c2cn[nH]c2)cn1-c1ccc(OC(F)(F)F)cc1 | > 200 µM |
| CCOc1ccc(-n2cc(-c3ccnnc3)c3nn(CC)nc3c2=O)c(C)c1 | < 50 µM |
| O=c1c(-c2ccc(F)cc2)c(-c2ccc(OC(F)(F)F)cc2)c1=O | < 50 µM |
| CC(=O)N1CCc2c(-c3cnn(C)c3)cn(-c3ccc(OC(F)(F)F)cc3)c(=O)c21 | in the range around 125 µM |
| CCn1ccc2ccn(-c3ccc(OC(F)(F)F)cc3)c(=O)c21 | < 50 µM |
| O=c1c2[nH]ccc2c(-c2ccc(F)cc2)cn1-c1ccc(OC(F)(F)F)cc1 | < 50 µM |
| CCOc1ccc(-n2cc(-c3cn[nH]c3)c3ccn(C)c3c2=O)c(C)c1 | < 50 µM |
| CCn1cc(-c2cn(-c3ccc(OC(F)(F)F)cc3)c(=O)c3c2ncn3CC)cn1 | < 50 µM |
| CCOc1ccc(-n2cc(-c3ccnnc3)c(C)cc2=O)c(C)c1 | < 50 µM |
| CCn1ccc2c(-c3cnn(C)c3)c[nH]c(=O)c21 | < 50 µM |
| Cn1cc(-c2cn(-c3ccc(OC(F)(F)F)cc3)c(=O)c3cc[nH]c23)cn1 | < 50 µM |
| COCCn1ccc2c(-c3cnn(C)c3)cn(-c3ccc(OC(F)(F)F)cc3)c(=O)c21 | < 50 µM |
| Cn1ccc2c(-c3cn[nH]c3)cn(-c3ccc(Cl)cc3)c(=O)c21 | < 50 µM |
| O=c1c2[nH]ccc2c(-c2cn[nH]c2)cn1-c1ccc(Cl)cc1 | < 50 µM |
| Cc1nc2c(-c3cn[nH]c3)cn(-c3ccc(OC(F)(F)F)cc3)c(=O)c2s1 | < 50 µM |
| CCn1nnc2c(-c3ccc(F)cc3)cn(-c3ccc(OC(F)(F)F)cc3)c(=O)c21 | < 50 µM |
| Cn1ccc2c(-c3cn[nH]c3)cn(-c3ccc(OC(F)(F)F)cc3)c(=O)c21 | < 50 µM |
| O=c1c2nccnc2c(-c2cnn(CCO)c2)cn1-c1ccc(OC(F)(F)F)cc1 | in the range around 125 µM |
| O=c1c2[nH]cnc2c(-c2cn[nH]c2)cn1-c1ccc(OC(F)(F)F)cc1 | < 50 µM |
| Cn1cc(-c2cn(-c3ccc(OC(F)(F)F)cc3)c(=O)c3c2ccn3CCO)cn1 | < 50 µM |

| Structure (SMILES) | EC50 |
| --- | --- |
| CCn1cnc2c(-c3cnn(C)c3)c[nH]c(=O)c21 | in the range around 125 µM |
| CCn1nnc2c(=O)n(-c3ccc(OC(F)(F)F)cc3)cc(-c3cnn(C)c3)c21 | < 50 µM |
| Cc1nc2c(-c3cnn(Cc4ccccc4)c3)cn(-c3ccc(OC(F)(F)F)cc3)c(=O)c2s1 | < 50 µM |
| Cn1cc(-c2cn(-c3ccc(OC(F)(F)F)cc3)c(=O)c3[nH]ccc23)cn1 | < 50 µM |
| Cn1cc(-c2cn(-c3ccc(OC(F)(F)F)cc3)c(=O)c3c2CCN3C(=O)OC(C)(C)C)cn1 | < 50 µM |
| Cn1cc(-c2cn(-c3ccc(Cl)cc3)c(=O)c3c2ccn3C)cn1 | < 50 µM |
| CCn1ccc2c(=O)n(-c3ccc(OC(F)(F)F)cc3)cc(-c3ccc(F)cc3)c21 | < 50 µM |
| Cc1nc2ccn(-c3ccc(OC(F)(F)F)cc3)c(=O)c2s1 | > 200 µM |
| CCn1nnc2c(-c3cnn(C)c3)cn(-c3ccc(OC(F)(F)F)cc3)c(=O)c21 | < 50 µM |
| Cc1cc(=O)n(-c2ccccc2NC(N)=O)cc1-c1ccc(F)cc1 | < 50 µM |
| O=c1c2[nH]nnc2c(-c2cn[nH]c2)cn1-c1ccc(OC(F)(F)F)cc1 | in the range around 125 µM |
| Cc1nc2c(=O)n(-c3ccc(OC(F)(F)F)cc3)cc(-c3cnn(C)c3)c2o1 | < 50 µM |
| CCn1cnc2c(-c3cn[nH]c3)cn(-c3ccc(OC(F)(F)F)cc3)c(=O)c21 | < 50 µM |
| O=c1c2nccnc2ccn1-c1ccc(OC(F)(F)F)cc1 | < 50 µM |
| CCn1ccc2c(-c3ccc(F)cc3)c[nH]c(=O)c21 | < 50 µM |
| Cc1cc(=O)n(-c2ccc(OC(F)(F)F)cc2)cc1-c1ccc2c(c1)oc(=O)n2CCO | in the range around 125 µM |
| Cn1cc(-c2cn(-c3ccc(OC(F)(F)F)cc3)c(=O)c3scnc23)cn1 | < 50 µM |
| Cn1cc(-c2cn(-c3ccc(OC(F)(F)F)cc3)c(=O)c3[nH]ncc23)cn1 | > 200 µM |
| Cn1cc(-c2cn(-c3ccc(OC(F)(F)F)cc3)c(=O)c3c2ncn3C)cn1 | < 50 µM |
| Cc1nc2c(=O)n(-c3ccc(OC(F)(F)F)cc3)ccc2o1 | > 200 µM |
| Cn1cc(-c2cn(-c3ccc(C#N)cc3)c(=O)c3c2ccn3C)cn1 | > 200 µM |
| CCn1nnc2c(-c3cn[nH]c3)cn(-c3ccc(OC(F)(F)F)cc3)c(=O)c21 | < 50 µM |
| Cn1cc(-c2cn(-c3ccc(OC(F)(F)F)cc3)c(=O)c3c2ccn3Cc2ccccc2)cn1 | < 50 µM |
| O=c1c2[nH]ncc2c(-c2ccc(F)cc2)cn1-c1ccc(OC(F)(F)F)cc1 | < 50 µM |
| Cn1cc(-c2cn(-c3ccc(OC(F)(F)F)cc3)c(=O)c3nnn(CCF)c23)cn1 | < 50 µM |

| Structure (SMILES) | EC50 |
| --- | --- |
| Cc1cc(=O)n(-c2ccc(OC(F)(F)F)cc2)cc1-c1ccc2c(c1)OCC(=O)N2CCO | > 200 µM |
| O=c1c2scnc2c(-c2cn[nH]c2)cn1-c1ccc(OC(F)(F)F)cc1 | < 50 µM |
| CCOc1ccc(-n2cc(-c3cn[nH]c3)c3nccnc3c2=O)c(C)c1 | < 50 µM |
| Cc1nc2c(=O)n(-c3ccc(OC(F)(F)F)cc3)cc(-c3ccc(F)cc3)c2o1 | > 200 µM |
| Cn1cc(-c2c[nH]c(=O)c3[nH]ccc23)cn1 | < 50 µM |
| CC(C)OCCn1ccc2c(-c3cn[nH]c3)cn(-c3ccc(OC(F)(F)F)cc3)c(=O)c21 | < 50 µM |
| O=c1c2[nH]ccc2c(-c2cn[nH]c2)cn1-c1ccc(OC(F)(F)F)cc1 | < 50 µM |
| CCOCCn1ccc2c(-c3cn[nH]c3)cn(-c3ccc(OC(F)(F)F)cc3)c(=O)c21 | < 50 µM |
| CC(C)n1nnc2c(-c3cnn(C)c3)cn(-c3ccc(OC(F)(F)F)cc3)c(=O)c21 | < 50 µM |
| CCOc1ccc(-n2cc(-c3cn[nH]c3)c3cc[nH]c3c2=O)c(C)c1 | < 50 µM |
| N#Cc1ccc(-n2cc(-c3cn[nH]c3)c3cc[nH]c3c2=O)cc1 | in the range around 125 µM |
| CCn1ccc2c(-c3cnn(CCO)c3)cn(-c3ccc(OC(F)(F)F)cc3)c(=O)c21 | < 50 µM |
| Cc1nc2c(=O)n(-c3ccc(OC(F)(F)F)cc3)cc(-c3cn[nH]c3)c2n1C | < 50 µM |
| Cn1cc(-c2cn(-c3ccc(Cl)cc3)c(=O)c3cccnc23)cn1 | > 200 µM |
| CC(C)n1ccc2c(-c3cn[nH]c3)cn(-c3ccc(OC(F)(F)F)cc3)c(=O)c21 | < 50 µM |
| CCn1ccc2c(=O)n(-c3ccc(OC(F)(F)F)cc3)cc(-c3cnn(C)c3)c21 | < 50 µM |
| N#Cc1ccc(-n2cc(-c3cn[nH]c3)c3ncccc3c2=O)cc1 | > 200 µM |
| Cc1nc2c(-c3cnn(C)c3)cn(-c3ccc(OC(F)(F)F)cc3)c(=O)c2s1 | < 50 µM |
| Cn1cc(-c2c[nH]c(=O)c3[nH]nnc23)cn1 | > 200 µM |
| CCn1cc2c(-c3cnn(C)c3)cn(-c3ccc(OC(F)(F)F)cc3)c(=O)c2n1 | < 50 µM |
| CC(C)N1N=NC2C(=O)N(c3ccc(OC(F)(F)F)cc3)C=C(c3cnn(C)c3)C21 (stereo not drawn) | in the range around 125 µM |
| N#Cc1ccc(-n2cc(-c3cn[nH]c3)c3nccnc3c2=O)cc1 | > 200 µM |
| O=c1c2[nH]nnc2c(-c2ccc(F)cc2)cn1-c1ccc(OC(F)(F)F)cc1 | in the range around 125 µM |
| Cc1cc(=O)n(-c2cccc(NC(N)=O)c2)cc1-c1cnn(C)c1 | < 50 µM |
| Cc1cc(=O)[nH]cc1-c1ccc2c(c1)OCC(=O)N2C | < 50 µM |

| Structure (SMILES) | EC50 |
| --- | --- |
| Cn1ccc2c(-c3cn[nH]c3)cn(-c3ccc(C#N)cc3)c(=O)c21 | < 50 µM |
| Cn1cc(-c2cn(-c3ccc(OC(F)(F)F)cc3)c(=O)c3c2ccn3C2CC2)cn1 | < 50 µM |
| Cn1cc(-c2cn(-c3ccc(OC(F)(F)F)cc3)c(=O)c3[nH]nnc23)cn1 | < 50 µM |
| Cn1cc(-c2cn(-c3ccc(Cl)cc3)c(=O)c3[nH]ccc23)cn1 | < 50 µM |
| CCOc1ccc(-n2cc(-c3cnn(C)c3)c3nn(CC)nc3c2=O)c(C)c1 | in the range around 125 µM |
| CCn1nc2c(-c3cnn(C)c3)cn(-c3ccc(OC(F)(F)F)cc3)c(=O)c2n1 | < 50 µM |
| CCOc1ccc(-n2cc(-c3cn[nH]c3)c3ncccc3c2=O)c(C)c1 | < 50 µM |
| CCn1nnc2c(=O)[nH]cc(-c3cnn(C)c3)c21 | > 200 µM |
| O=c1c2c(ccn2C2CC2)c(-c2cn[nH]c2)cn1-c1ccc(OC(F)(F)F)cc1 | < 50 µM |
| CCn1nnc2c(=O)n(-c3ccc(OC(F)(F)F)cc3)cc(-c3ccc(F)cc3)c21 | < 50 µM |
| Cc1cc(=O)[nH]cc1-c1cccc2c1OC(F)(F)O2 | < 50 µM |
| CCn1cnc2c(-c3cnn(C(C)C)c3)cn(-c3ccc(OC(F)(F)F)cc3)c(=O)c21 | < 50 µM |
| CCn1c(=O)oc2ccc(-c3c[nH]c(=O)cc3C)cc21 | < 50 µM |
| CC(C)n1ccc2c(-c3cnn(C)c3)cn(-c3ccc(OC(F)(F)F)cc3)c(=O)c21 | < 50 µM |
| CCn1ccc2c(-c3cn[nH]c3)cn(-c3ccc(OC(F)(F)F)cc3)c(=O)c21 | < 50 µM |
| O=c1c2[nH]ccc2ccn1-c1ccc(OC(F)(F)F)cc1 | < 50 µM |
| CCn1cnc2c(=O)n(-c3ccc(OC(F)(F)F)cc3)cc(-c3cnn(C)c3)c21 | > 200 µM |
| Cn1cc(-c2cn(-c3ccc(OC(F)(F)F)cc3)c(=O)c3nn(CCF)nc23)cn1 | < 50 µM |
| Cc1nc2c(=O)n(-c3ccc(OC(F)(F)F)cc3)cc(-c3cnn(C)c3)c2n1C | in the range around 125 µM |
| CCn1nc2c(-c3ccc(F)cc3)cn(-c3ccc(OC(F)(F)F)cc3)c(=O)c2n1 | > 200 µM |
| Cc1cc(=O)n(-c2ccc(F)c(NC(N)=O)c2)cc1-c1ccc(F)cc1 | < 50 µM |
| CCOc1ccc(-c2c(-c3ccc(F)cc3)c(=O)c2=O)c(C)c1 | < 50 µM |
| Cn1cc(-c2cn(-c3ccc(OC(F)(F)F)cc3)c(=O)c3c2nnn3CCF)cn1 | in the range around 125 µM |
